# Data taken from PMC12298351, “Novel 3,19-(N-Phenyl-3-(4-fluorophenyl)-pyrazole) Acetal of Andrographolide Promotes Cell Cycle Arrest and Apoptosis in MDA-MB-231 Breast Cancer Cells” (Pharmaceuticals, 2025).
# How the values were obtained:
# SK-MEL-2 = settings: SK-MEL-2, Melanoma
# 786-0 = settings: 786-0, Renal
# PC-3 = settings: PC-3, Prostate
# HT29 = settings: HT29, Colon
# HCT-116 = assay type: cell-based; settings: HCT-116, Colon
# SK-MEL-5 = settings: SK-MEL-5, Melanoma
# MDA-MB-435 = settings: MDA-MB-435, Melanoma
# HCC-2998 = settings: HCC-2998, Colon
# HCT-15 = settings: HCT-15, Colon
# SNB-19 = assay type: cell-based; settings: SNB-19, CNS
# OVCAR-4 = assay type: cell-based; settings: OVCAR-4, Ovarian
# [1] = DPPH radical scavenging assay; settings: 25 µM test compound, 0.1 mM DPPH, acetonitrile, 30 min
# Protocol: A stable free radical DPPH (2,2-Diphenyl-1-picrylhydrazyl) assay was employed to test the antioxidant activity of all the synthesized compounds. Concisely, 25 µM of the test compounds were dissolved in acetonitrile and combined with 0.1 mM of DPPH (in acetonitrile) in a 1:2 ratio (80 µL and 160 µL). Then, the mixture was left undisturbed in the dark for 30 min at room temperature. After 30 min, the absorbance of the solutions was instantly measured at 517 nm using a Varioskan Multiplate Reader (Thermo Fisher Scientific, Mumbai, India). Ascorbic acid (in acetonitrile) was used as the positive control, and andrographolide and isoandrogapholide (in acetonitrile) were used as the standards. The following equation was used to determine the DPPH radical scavenging activity:% Radical scavenging activity = (Ac − As)/Ac × 100 where Ac = the absorbance of the blank (DPPH solution), and As = the absorbance of the test samples
# OVCAR-5 = settings: OVCAR-5, Ovarian
# BT-549 = assay type: cell-based; settings: BT-549, Breast
# MOLT-4 = settings: MOLT-4, Leukemia
# SNB-75 = settings: SNB-75, CNS
# MALME-3M = settings: Melanoma
# COLO 205 = settings: COLO 205, Colon
# SF-295 = settings: SF-295, CNS
# SF-539 = settings: SF-539, CNS
# [2] = read-out: 50% lethal concentration (LC50)
# [3] = read-out: 50% lethal concentration (LC50), Breast
compound,measurement,setting,value
"C=C1CCC2C3(C)COC(c4cn(-c5ccccc5)nc4-c4ccc(F)cc4)OC3CCC2(C)C1CC=C1C(=O)OCC1O (stereo not shown) [1f, 3,19-(N-Phenyl-3-(4-fluorophenyl)-pyrazole) Acetal of Andrographolide]",GI50,SK-MEL-2,1.69 µM
same,Total growth inhibition (TGI),SK-MEL-2,3.1 µM
same,GI50,786-0,1.6 µM
same,Total growth inhibition (TGI),786-0,3.34 µM
same,CC50,786-0; [2],6.96 µM
same,GI50,PC-3,1.55 µM
same,Total growth inhibition (TGI),PC-3,4.04 µM
same,CC50,PC-3; [2],> 100 µM
same,GI50,HT29,2.38 µM
same,Total growth inhibition (TGI),HT29,7.63 µM
same,CC50,HT29; [2],93.9 µM
same,GI50,HCT-116,0.39 µM
same,Total growth inhibition (TGI),HCT-116,1.18 µM
same,Total growth inhibition (TGI),"NCI-H226; NCI-H226, Non-Small Cell Lung",2.94 µM
same,GI50,"NCI-H226; NCI-H226, Non-Small-Cell Lung",1.51 µM
same,CC50,"NCI-H226; read-out: 50% lethal concentration (LC50), NCI-H226, Non-Small Cell Lung",5.75 µM
same,GI50,SK-MEL-5,1.62 µM
same,Total growth inhibition (TGI),SK-MEL-5,2.98 µM
same,CC50,SK-MEL-5; [2],5.47 µM
same,Total growth inhibition (TGI),"NCI-H522; NCI-H522, Non-Small Cell Lung",3.82 µM
same,GI50,"NCI-H522; NCI-H522, Non-Small-Cell Lung",1.95 µM
same,CC50,"NCI-H522; read-out: 50% lethal concentration (LC50), NCI-H522, Non-Small Cell Lung",7.48 µM
same,Total growth inhibition (TGI),"HOP-92; HOP-92, Non-Small Cell Lung",2.73 µM
same,GI50,"HOP-92; HOP-92, Non-Small-Cell Lung",1.29 µM
same,CC50,"HOP-92; read-out: 50% lethal concentration (LC50), HOP-92, Non-Small Cell Lung",5.78 µM
same,GI50,MDA-MB-435,1.68 µM
same,Total growth inhibition (TGI),MDA-MB-435,3.27 µM
same,CC50,MDA-MB-435; [2],6.38 µM
same,GI50,"MDA-MB-231; MDA-MB-231, Breast",1.68 µM
same,Total growth inhibition (TGI),"MDA-MB-231; MDA-MB-231/ATCC, Breast",3.28 µM
same,CC50,"MDA-MB-231; read-out: 50% lethal concentration (LC50), MDA-MB-231/ATCC, Breast",6.41 µM
same,GI50,HCC-2998,1.76 µM
same,Total growth inhibition (TGI),HCC-2998,3.21 µM
same,GI50,HCT-15,1.61 µM
same,Total growth inhibition (TGI),HCT-15,3.18 µM
same,CC50,HCT-15; [2],6.28 µM
same,GI50,SNB-19,1.44 µM
same,Total growth inhibition (TGI),SNB-19,2.91 µM
same,GI50,OVCAR-4,1.75 µM
same,Total growth inhibition (TGI),OVCAR-4,4.08 µM
same,% DPPH radical scavenging activity,[1],58.15%
same,GI50,OVCAR-5,1.74 µM
same,Total growth inhibition (TGI),OVCAR-5,3.88 µM
same,CC50,OVCAR-5; [2],8.66 µM
same,GI50,T-47D; Breast,1.19 µM
same,Total growth inhibition (TGI),T-47D; Breast,2.97 µM
same,CC50,T-47D; [3],7.44 µM
same,GI50,BT-549,1.31 µM
same,Total growth inhibition (TGI),BT-549,3.18 µM
same,GI50,MOLT-4,0.6 µM
same,CC50,MOLT-4; [2],> 100 µM
same,GI50,SNB-75,1.66 µM
same,Total growth inhibition (TGI),SNB-75,3.09 µM
same,CC50,SNB-75; [2],5.86 µM
same,GI50,HS 578T; Breast,1.51 µM
same,Total growth inhibition (TGI),HS 578T; Breast,2.94 µM
same,CC50,HS 578T; [3],5.72 µM
same,GI50,MALME-3M,1.58 µM
same,Total growth inhibition (TGI),MALME-3M,3.02 µM
same,GI50,COLO 205,1.48 µM
same,Total growth inhibition (TGI),COLO 205,3.2 µM
same,Total growth inhibition (TGI),"NCI-H23; NCI-H23, Non-Small Cell Lung",3.32 µM
same,GI50,"NCI-H23; NCI-H23, Non-Small-Cell Lung",1.7 µM
same,CC50,"NCI-H23; read-out: 50% lethal concentration (LC50), NCI-H23, Non-Small Cell Lung",6.46 µM
same,GI50,SF-295,1.55 µM
same,Total growth inhibition (TGI),SF-295,2.92 µM
same,CC50,SF-295; [2],5.49 µM
same,GI50,SF-539,1.77 µM
same,Total growth inhibition (TGI),SF-539,3.16 µM
same,CC50,SF-539; [2],5.65 µM
same,GI50,HL-60(TB); Leukemia,0.64 µM
same,Total growth inhibition (TGI),HL-60(TB); Leukemia,7.12 µM
same,CC50,"HL-60(TB); read-out: 50% lethal concentration (LC50), Leukemia",> 100 µM
